One block for each compound: values may come before it.
System: 817829-284-R-J1-PDC complex spheroids, viability
Assay: Anticancer human tumor 817829-284-R-J1-PDC patient-derived colon adenocarcinoma cell line growth inhibition [CLK]
Details: for IC50: curve of first compound; for viability, T/C: stronger effect = lower value
Summary of the method: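 Multi-cell-type spheroids combined patient-derived tumor cells with HUVEC endothelial cells and human mesenchymal stem cells. Paired agents were dosed in half-log steps down from about clinical Cmax, or from 10 microM where Cmax was unknown.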

[1] = second compound 0.0316 µM, first compound 0.0316 µM
[2] = second compound 0.0316 µM, first compound 0.1 µM
[3] = second compound 0.0316 µM, first compound 0.316 µM
[4] = second compound 0.0316 µM, first compound 1 µM
[5] = second compound 0.0316 µM, first compound 3.16 µM
[6] = second compound 0.0316 µM, first compound 10 µM
[7] = second compound 0.1 µM, first compound 0.0316 µM
[8] = second compound 0.1 µM, first compound 0.1 µM
[9] = second compound 0.1 µM, first compound 0.316 µM
[10] = second compound 0.1 µM, first compound 1 µM
[11] = second compound 0.1 µM, first compound 3.16 µM
[12] = second compound 0.1 µM, first compound 10 µM
[13] = second compound 0.316 µM, first compound 0.0316 µM
[14] = second compound 0.316 µM, first compound 0.1 µM
[15] = second compound 0.316 µM, first compound 0.316 µM
[16] = second compound 0.316 µM, first compound 1 µM
[17] = second compound 0.316 µM, first compound 3.16 µM
[18] = second compound 0.316 µM, first compound 10 µM
[19] = second compound 1 µM, first compound 0.0316 µM
[20] = second compound 1 µM, first compound 0.1 µM
[21] = second compound 1 µM, first compound 0.316 µM
[22] = second compound 1 µM, first compound 1 µM
[23] = second compound 1 µM, first compound 3.16 µM
[24] = second compound 1 µM, first compound 10 µM
[25] = second compound 3.16 µM, first compound 0.0316 µM
[26] = second compound 3.16 µM, first compound 0.1 µM
[27] = second compound 3.16 µM, first compound 0.316 µM
[28] = second compound 3.16 µM, first compound 1 µM
[29] = second compound 3.16 µM, first compound 3.16 µM
[30] = second compound 3.16 µM, first compound 10 µM
[31] = second compound 10 µM, first compound 0.0316 µM
[32] = second compound 10 µM, first compound 0.1 µM
[33] = second compound 10 µM, first compound 0.316 µM
[34] = second compound 10 µM, first compound 1 µM
[35] = second compound 10 µM, first compound 3.16 µM
[36] = second compound 10 µM, first compound 10 µM
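Also: spheroids exposed to the agents for seven days before readout.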

SMILES: C=C(F)C(=O)N1CCN(c2nc(OCC3CCCN3C)nc3c2CCN(c2cccc4cccc(Cl)c24)C3)CC1CC#N (stereo not given) + CNC(=O)c1ccc(Nc2nc(OC3CCCC3)c3c(-c4ccc5nc(C)oc5c4)c[nH]c3n2)c(OC)c1
IC50 (second compound 0.0316 µM): < 31.6 nM
IC50 (second compound 0.1 µM): < 31.6 nM
IC50 (second compound 0.316 µM): < 31.6 nM
IC50 (second compound 1 µM): < 31.6 nM
IC50 (second compound 3.16 µM): < 31.6 nM
IC50 (second compound 10 µM): < 31.6 nM
viability, T/C [1]: 19.9%
viability, T/C [2]: 42.3%
viability, T/C [3]: 23.4%
viability, T/C [4]: 23.3%
viability, T/C [5]: 17.6%
viability, T/C [6]: 0.08%
viability, T/C [7]: 34.9%
viability, T/C [8]: 23%
viability, T/C [9]: 26.5%
viability, T/C [10]: 23.6%
viability, T/C [11]: 16.1%
viability, T/C [12]: 0.15%
viability, T/C [13]: 25.3%
viability, T/C [14]: 25.3%
viability, T/C [15]: 22.7%
viability, T/C [16]: 24.5%
viability, T/C [17]: 10.8%
viability, T/C [18]: 0.08%
viability, T/C [19]: 22.4%
viability, T/C [20]: 24.6%
viability, T/C [21]: 28%
viability, T/C [22]: 24.4%
viability, T/C [23]: 5.74%
viability, T/C [24]: 0.07%
viability, T/C [25]: 20.7%
viability, T/C [26]: 26.8%
viability, T/C [27]: 22.5%
viability, T/C [28]: 21%
viability, T/C [29]: 3.26%
viability, T/C [30]: 0.18%
viability, T/C [31]: 21.7%
viability, T/C [32]: 14.1%
viability, T/C [33]: 20.6%
viability, T/C [34]: 28.5%
viability, T/C [35]: 3.94%
viability, T/C [36]: 0.22%

SMILES: C=CC(=O)N1CCN(c2nc(=O)n(-c3c(C)ccnc3C(C)C)c3nc(-c4c(O)cccc4F)c(F)cc23)C(C)C1 (stereo not given) + CNC(=O)c1ccc(Nc2nc(OC3CCCC3)c3c(-c4ccc5nc(C)oc5c4)c[nH]c3n2)c(OC)c1
IC50 (second compound 0.0316 µM): < 31.6 nM
IC50 (second compound 0.1 µM): < 31.6 nM
IC50 (second compound 0.316 µM): < 31.6 nM
IC50 (second compound 1 µM): < 31.6 nM
IC50 (second compound 3.16 µM): < 31.6 nM
IC50 (second compound 10 µM): < 31.6 nM
viability, T/C [1]: 35.9%
viability, T/C [2]: 44.3%
viability, T/C [3]: 34.6%
viability, T/C [4]: 24.2%
viability, T/C [5]: 25.9%
viability, T/C [6]: 15%
viability, T/C [7]: 30.9%
viability, T/C [8]: 22.7%
viability, T/C [9]: 30.4%
viability, T/C [10]: 25.1%
viability, T/C [11]: 22.2%
viability, T/C [12]: 22.9%
viability, T/C [13]: 28.8%
viability, T/C [14]: 35.2%
viability, T/C [15]: 30.8%
viability, T/C [16]: 22.8%
viability, T/C [17]: 31.2%
viability, T/C [18]: 17.4%
viability, T/C [19]: 22.3%
viability, T/C [20]: 20.8%
viability, T/C [21]: 18.2%
viability, T/C [22]: 19.8%
viability, T/C [23]: 20%
viability, T/C [24]: 12.4%
viability, T/C [25]: 22.4%
viability, T/C [26]: 25.8%
viability, T/C [27]: 15.9%
viability, T/C [28]: 22.2%
viability, T/C [29]: 23.5%
viability, T/C [30]: 10.6%
viability, T/C [31]: 27.2%
viability, T/C [32]: 23.3%
viability, T/C [33]: 22%
viability, T/C [34]: 27.3%
viability, T/C [35]: 19.1%
viability, T/C [36]: 12%

SMILES: CCCS(=O)(=O)Nc1ccc(F)c(C(=O)c2c[nH]c3ncc(-c4ccc(Cl)cc4)cc23)c1F + CNC(=O)c1ccc(Nc2nc(OC3CCCC3)c3c(-c4ccc5nc(C)oc5c4)c[nH]c3n2)c(OC)c1
IC50 (second compound 0.0316 µM): < 31.6 nM
IC50 (second compound 0.1 µM): < 31.6 nM
IC50 (second compound 0.316 µM): < 31.6 nM
IC50 (second compound 1 µM): < 31.6 nM
IC50 (second compound 3.16 µM): < 31.6 nM
IC50 (second compound 10 µM): < 31.6 nM
viability, T/C [1]: 31.8%
viability, T/C [2]: 23.5%
viability, T/C [3]: 33.4%
viability, T/C [4]: 27%
viability, T/C [5]: 33%
viability, T/C [6]: 10.1%
viability, T/C [7]: 19.1%
viability, T/C [8]: 16.2%
viability, T/C [9]: 16.2%
viability, T/C [10]: 20.5%
viability, T/C [11]: 21.1%
viability, T/C [12]: 16.3%
viability, T/C [13]: 38%
viability, T/C [14]: 22.6%
viability, T/C [15]: 18%
viability, T/C [16]: 15.2%
viability, T/C [17]: 18.3%
viability, T/C [18]: 15.7%
viability, T/C [19]: 17.8%
viability, T/C [20]: 15%
viability, T/C [21]: 18.6%
viability, T/C [22]: 12.8%
viability, T/C [23]: 11.6%
viability, T/C [24]: 6.76%
viability, T/C [25]: 16.4%
viability, T/C [26]: 15.9%
viability, T/C [27]: 21.2%
viability, T/C [28]: 22.2%
viability, T/C [29]: 9.76%
viability, T/C [30]: 12.3%
viability, T/C [31]: 21.7%
viability, T/C [32]: 17.4%
viability, T/C [33]: 12%
viability, T/C [34]: 17.2%
viability, T/C [35]: 9.32%
viability, T/C [36]: 5.05%

Second part, led by results:

IC50 (second compound 0.0316 µM): < 31.6 nM
IC50 (second compound 0.1 µM): < 31.6 nM
IC50 (second compound 0.316 µM): < 31.6 nM
IC50 (second compound 1 µM): < 31.6 nM
IC50 (second compound 3.16 µM): < 31.6 nM
IC50 (second compound 10 µM): 34.4 nM
SMILES: C#Cc1c(F)ccc2cc(O)cc(-c3ncc4c(N5CC6CCC(C5)N6)nc(OCC56CCCN5CC(F)C6)nc4c3F)c12 (stereo not given) + CNC(=O)c1ccc(Nc2nc(OC3CCCC3)c3c(-c4ccc5nc(C)oc5c4)c[nH]c3n2)c(OC)c1
viability, T/C [1]: 34.1%
viability, T/C [2]: 43.8%
viability, T/C [3]: 24.7%
viability, T/C [4]: 22.7%
viability, T/C [5]: 19.7%
viability, T/C [6]: 17.7%
viability, T/C [7]: 27%
viability, T/C [8]: 26.2%
viability, T/C [9]: 22.1%
viability, T/C [10]: 29.4%
viability, T/C [11]: 26%
viability, T/C [12]: 30.8%
viability, T/C [13]: 33.1%
viability, T/C [14]: 20.1%
viability, T/C [15]: 23.5%
viability, T/C [16]: 33.7%
viability, T/C [17]: 25.6%
viability, T/C [18]: 15.5%
viability, T/C [19]: 23.1%
viability, T/C [20]: 18.2%
viability, T/C [21]: 19%
viability, T/C [22]: 38%
viability, T/C [23]: 24.4%
viability, T/C [24]: 10%
viability, T/C [25]: 24.8%
viability, T/C [26]: 20.4%
viability, T/C [27]: 23%
viability, T/C [28]: 20.9%
viability, T/C [29]: 20.8%
viability, T/C [30]: 10.5%
viability, T/C [31]: 52.5%
viability, T/C [32]: 20.1%
viability, T/C [33]: 22.6%
viability, T/C [34]: 18.4%
viability, T/C [35]: 17.7%
viability, T/C [36]: 9.34%

IC50 (second compound 0.0316 µM): < 31.6 nM
IC50 (second compound 0.1 µM): < 31.6 nM
IC50 (second compound 0.316 µM): < 31.6 nM
IC50 (second compound 1 µM): < 31.6 nM
IC50 (second compound 3.16 µM): < 31.6 nM
IC50 (second compound 10 µM): < 31.6 nM
SMILES: COC1C=CCC(C)C(C)S(=O)(=O)NC(=O)c2ccc3c(c2)N(CC2CCC21)CC1(CCCc2cc(Cl)ccc21)CO3 (stereo not given) + CNC(=O)c1ccc(Nc2nc(OC3CCCC3)c3c(-c4ccc5nc(C)oc5c4)c[nH]c3n2)c(OC)c1
viability, T/C [1]: 31.3%
viability, T/C [2]: 51.1%
viability, T/C [3]: 31.1%
viability, T/C [4]: 47.8%
viability, T/C [5]: 45.3%
viability, T/C [6]: 4.06%
viability, T/C [7]: 27.3%
viability, T/C [8]: 26.5%
viability, T/C [9]: 18.7%
viability, T/C [10]: 16.1%
viability, T/C [11]: 7.61%
viability, T/C [12]: 4.67%
viability, T/C [13]: 21.2%
viability, T/C [14]: 31.2%
viability, T/C [15]: 22.6%
viability, T/C [16]: 12.6%
viability, T/C [17]: 6.09%
viability, T/C [18]: 4.97%
viability, T/C [19]: 19.7%
viability, T/C [20]: 23.3%
viability, T/C [21]: 19.9%
viability, T/C [22]: 17.6%
viability, T/C [23]: 6.44%
viability, T/C [24]: 16%
viability, T/C [25]: 19.7%
viability, T/C [26]: 22.5%
viability, T/C [27]: 21.7%
viability, T/C [28]: 17.4%
viability, T/C [29]: 7.34%
viability, T/C [30]: 4.74%
viability, T/C [31]: 27.4%
viability, T/C [32]: 23.8%
viability, T/C [33]: 19.8%
viability, T/C [34]: 13.2%
viability, T/C [35]: 7.33%
viability, T/C [36]: 3.62%

— PubChem BioAssay AID2060599 (Molecular Pharmacology Branch, DTP, NCI, 2025)
